Assay results taken from patent publication US20250304571A1, “BIOLOGICALLY ACTIVE COMPOUNDS AND METHODS THEREOF” (Suzhou Keen Therapeutics Co., Ltd., priority 2022, published 2025).
pIC50: −log10 of the molar value. Like-named read-outs stand apart in the source and are kept apart here.

Legend:
Assay type in all cases: cell-based
[1] = system: KP4 (pancreatic ductal adenocarcinoma) cells; assay: Cell viability (CellTiter Glo) assay, inhibition of KP4 cell proliferation; conditions: Homo sapiens, read-out: IC50, inhibition of KP4 cell proliferation
[2] = system: 786-O (renal cell carcinoma) cells; assay: Cell viability (CellTiter Glo) assay, inhibition of 786-O cell proliferation; conditions: Homo sapiens, read-out: IC50, inhibition of 786-O cell proliferation
[3] = system: HT-1080 (fibrosarcoma) cells; assay: Cell viability (CellTiter Glo) assay, inhibition of HT-1080 cell proliferation; conditions: Homo sapiens, HT-1080 cells, 72 hours
786-O cells = assay: Anti-proliferation activity in 786-O cells in the presence of a ferroptosis inhibitor (Ferrostatin-1 or Liproxstatin-1); conditions: Homo sapiens
Procedure: In one assessment, cells (KP4, 786-0 and HT-1080) were seeded (700 cells/well, 1000 cells/well or 3000 cells/well) in 384-well or 96-well plates and incubated at 37° C./5% CO2 for 22-24 hours. A series of 8 different concentrations of compound stocks were created by 5-fold serial dilution in DMSO. These compounds were further diluted in culture media and were then added to cells (final concentrations: 100 μM, 20 μM, 4 μM, 0.8 μM, 0.16 μM, […].). After 72 hours of incubation, 30 μL of CellTiter Glo reagent (Promega) was added to each well and luminescence was measured after 10 minutes using SpectraMax M5/M5e (Molecular Devices). Luminescence from cells treated with DMSO alone was set as background and % of inhibition was calculated as follows: […]
Anti-proliferation activity of various compounds was also tested in the presence of an ferroptosis inhibitor, Ferrostatin-1 (2 μM) or Liproxstatin-1 (2 μM). Certain results are provided in Table 4 and Table 5 as examples. “A” indicates an IC50≤100 nM; “B” indicates an IC50 of >100 nM and ≤500 nM; “C” indicates an IC50>500 nM and ≤5 μM; and “D” indicates an IC50>5 μM.

[4] = KP-4, KP4 cells, 72 hours, CellTiter Glo
[5] = 786-0, 786-O cells, 72 hours, CellTiter Glo
[6] = 786-0, 72 h, no ferroptosis inhibitor, read-out: IC50, No Ferroptosis Inhibitor (Table 5)

| pIC50 [1, 4] | pIC50 [2, 5] | SMILES | further results |
| --- | --- | --- | --- |
| 6.30 to 7.00 |  | CCCC[C@H]1Cc2cc(OC)ccc2[C@H](c2ccc(F)cc2)N1C(=O)COC(=N)N(C)C [Compound A1] |  |
| < 5.30 | 5.30 to 6.30 | CCCC[C@H]1Cc2cc(OC)ccc2[C@H](c2ccc(F)cc2)N1C(=O)COC(=N)N1CCN(C)C(=O)C1 [Compound A2] |  |
| 6.30 to 7.00 |  | CN(C)C(=N)OCc1ncc2ccn(-c3ccc(Oc4ccccc4)cc3)c2n1 [Compound D1] |  |
| > 7.00 |  | C[C@@H]1CN(C(=N)OCc2nc(Nc3ccc(Oc4ccccc4)cc3)c3cc[nH]c3n2)C[C@H](C)N1C(=O)OC(C)(C)C [Compound D2] | pIC50 [3]: 6.30 to 7.00 |
| 5.30 to 6.30 | 5.30 to 6.30 | CN(C)C(=N)OCc1nc(Nc2ccc(Oc3ccccc3)cc2)c2cc[nH]c2n1 [Compound D3] | pIC50 [3]: 5.30 to 6.30 |
| 5.30 to 6.30 | 6.30 to 7.00 | N=C(OCc1nc(Nc2ccc(Oc3ccccc3)cc2)c2cc[nH]c2n1)N1CCOCC1 [Compound D4] |  |
| 6.30 to 7.00 | 6.30 to 7.00 | N=C(OCc1nc(Nc2ccc(Oc3ccccc3)cc2)c2cc[nH]c2n1)N1CCCCC1 [Compound D5] |  |
| 6.30 to 7.00 | 6.30 to 7.00 | N=C(OCc1nc(Nc2ccc(Oc3ccccc3)cc2)c2cc[nH]c2n1)N1CCC(F)(F)CC1 [Compound D6] | pIC50 (786-O cells; 786-0, Ferrostatin-1 (2 μM), read-out: IC50, With Ferrostatin-1): < 5.30; pIC50 (786-O cells; 786-0, no ferroptosis inhibitor, read-out: IC50, No Ferroptosis Inhibitor (Table 4)): 6.30 to 7.00 |
| 5.30 to 6.30 | 5.30 to 6.30 | CN1CCN(C(=N)OCc2nc(Nc3ccc(Oc4ccccc4)cc3)c3cc[nH]c3n2)CC1=O [Compound D7] |  |
| 5.30 to 6.30 | 6.30 to 7.00 | N=C(OCc1nc(Nc2ccc(Oc3ccccc3)cc2)c2cc[nH]c2n1)N1CCCC(F)(F)C1 [Compound D8] |  |
| 5.30 to 6.30 |  | CN(C)C(=N)OCc1nc(Nc2ccc(Oc3ccccc3)cc2)c2cn[nH]c2n1 [Compound D10] |  |
|  |  | CN(C)C(=N)OCc1nc(N)c2c(n1)N(c1ccc(Oc3ccccc3)cc1)CC2(C)C [Compound E1] | pIC50 ([2]; 786-0, 72 h): > 7.00; pIC50 (786-O cells; [6]): > 7.00 |
|  | > 7.00 | CC1(C)CN(c2ccc(Oc3ccccc3)cc2)c2nc(COC(=N)N3CCCCC3C(F)(F)F)nc(N)c21 (centres unmarked) [Compound E4] | pIC50 [3]: > 7.00 |
|  | 6.30 to 7.00 | CCN1CCN(C(=N)OCc2nc(N)c3c(n2)N(c2ccc(Oc4ccccc4)cc2)CC3(C)C)C2(CC2)C1=O [Compound E5] | pIC50 [3]: 6.30 to 7.00 |
|  | > 7.00 | C[C@@H]1CN(c2ncc(N3C(=O)C4(CCCC4)c4c(N)nc(COC(=N)N5CCC[C@@H]5C(F)(F)F)nc43)cn2)C[C@H](C)O1 [Compound E87, (4′-amino-7′-(2-((2S,6R)-2,6-dimethylmorpholino)pyrimidin-5-yl)-6′-oxo-6′,7′-dihydrospiro[cyclopentane-1,5′-pyrrolo[2,3-d]pyrimidin]-2′-yl)methyl (R)-2-(trifluoromethyl)pyrrolidine-1-carbimidate] | pIC50 (786-O cells; [6]): > 7.00 |
|  | > 7.00 | CNc1nc(COC(=N)N2CCC[C@@H]2C(F)(F)F)nc2c1C1(CCCC1)C(=O)N2c1cnc(N2C[C@@H](C)O[C@@H](C)C2)nc1 [Compound E88, (7′-{2-[(2R,6S)-2,6-dimethylmorpholin-4-yl]pyrimidin-5-yl}-4′-(methylamino)-6′-oxo-6′,7′-dihydrospiro[cyclopentane-1,5′-pyrrolo[2,3-d]pyrimidin]-2′-yl)methyl (2R)-2-(trifluoromethyl)pyrrolidine-1-carboximidate] | pIC50 (786-O cells; [6]): > 7.00 |
|  | 6.30 to 7.00 | CNc1nc(COC(=N)N2CCOCC2C(F)(F)F)nc2c1C1(CCCC1)C(=O)N2c1cnc(N2C[C@@H](C)O[C@@H](C)C2)nc1 (some centres unmarked) [Compound E97] | pIC50 (786-O cells; [6]): 6.30 to 7.00 |
|  | 5.30 to 6.30 | CNc1nc(COC(=N)N2CCC[C@@H]2C(F)(F)F)nc2c1C1(CCCC1)C(=O)N2c1cnc(C2CCOCC2)nc1 [Compound E99] | pIC50 (786-O cells; [6]): 5.30 to 6.30 |
|  | 6.30 to 7.00 | N=C(OCc1nc(N)c2c(n1)N(c1cnc(C3CCOCC3)nc1)C(=O)C21CCCC1)N1CCC[C@@H]1C(F)(F)F [Compound E100, (4′-amino-6′-oxo-7′-(2-(tetrahydro-2H-pyran-4-yl)pyrimidin-5-yl)-6′,7′-dihydrospiro[cyclopentane-1,5′-pyrrolo[2,3-d]pyrimidin]-2′-yl)methyl (R)-2-(trifluoromethyl)pyrrolidine-1-carbimidate] | pIC50 (786-O cells; [6]): 6.30 to 7.00 |
| 5.30 to 6.30 |  | CC(C)Oc1ccc(Nc2nc(N)nc(COC(=N)N(C)C)n2)cc1 [Compound F1] |  |
| > 7.00 |  | N=C(OCc1nc(N)nc(Nc2ccc(Oc3ccccc3)cc2)n1)N1CCCCC1 [Compound F4, (4-amino-6-((4-phenoxyphenyl)amino)-1,3,5-triazin-2-yl)methyl piperidine-1-carbimidate] |  |
| 6.30 to 7.00 | 6.30 to 7.00 | CN(C)C(=N)OCc1nc(N)nc(Nc2ccc3ccccc3c2)n1 [Compound F5] |  |

| pIC50 [1, 4] | pIC50 [2, 5] | SMILES | further results |
| --- | --- | --- | --- |
| 6.30 to 7.00 | 6.30 to 7.00 | CN1CCN(C(=N)OCc2nc(N)nc(Nc3ccc(Oc4ccccc4)cc3)n2)CC1 [Compound F7] |  |
| 6.30 to 7.00 | > 7.00 | N=C(NC1CCCCC1)OCc1nc(N)nc(Nc2ccc(Oc3ccccc3)cc2)n1 [Compound F9] | pIC50 [3]: 6.30 to 7.00 |
|  | > 7.00 | N=C(OCc1nc(N)nc(Nc2ccc(Oc3ccccc3)cc2)n1)N1CCCCC1C(F)(F)F (centres unmarked) [Compound F12] | pIC50 (786-O cells; [6]): > 7.00 |
|  |  | N=C(OCc1nc(N)nc(Nc2ccc(Oc3ccccc3)cc2)n1)N1CCCCC1=O [Compound F18] | pIC50 [3]: 5.30 to 6.30 |
|  | 6.30 to 7.00 | CCN1CCN(C(=N)OCc2nc(N)nc(Nc3ccc(Oc4ccccc4)cc3)n2)C2(CC2)C1=O [Compound F19] | pIC50 [3]: 5.30 to 6.30; pIC50 (786-O cells; [6]): 6.30 to 7.00 |
|  | 6.30 to 7.00 | N=C(NC12CC3CC(CC(C3)C1)C2)OCc1nc(N)nc(Nc2ccc(Oc3ccccc3)cc2)n1 [Compound F20] | pIC50 [3]: 6.30 to 7.00; pIC50 (786-O cells; [6]): 6.30 to 7.00 |
|  | > 7.00 | C#CCOc1cccc(Oc2ccc(Nc3nc(N)nc(COC(=N)N4CCC(F)(F)CC4)n3)cc2)c1 [Compound F21] | pIC50 (786-O cells; [6]): > 7.00 |
|  | > 7.00 | CN(C(=N)OCc1nc(N)nc(Nc2ccc(Oc3ccccc3)cc2)n1)C1CCCCC1 [Compound F22] | pIC50 [3]: 6.30 to 7.00; pIC50 (786-O cells; [6]): > 7.00 |
|  |  | Nc1nc(CO/C(=N\C2CCCCC2)NC2CCCCC2)nc(Nc2ccc(Oc3ccccc3)cc2)n1 [Compound F23] | pIC50 ([2]; 786-0, 72 h): 6.30 to 7.00; pIC50 ([1]; KP-4, 72 h): 5.30 to 6.30 |
| 5.30 to 6.30 | 6.30 to 7.00 | CC(C)/N=C(/NC(C)C)OCc1nc(N)nc(Nc2ccc(Oc3ccccc3)cc2)n1 [Compound F24] |  |
|  |  | N=C(N)OCc1nc(N)nc(Nc2ccc(Oc3ccccc3)cc2)n1 [Compound F26] | pIC50 ([1]; KP-4, 72 h): < 5.30 |
| 6.30 to 7.00 |  | N=C(OCc1nc(N)nc(Nc2ccc(Oc3ccccc3)cc2)n1)N1CCS(=O)(=O)CC1 [Compound F27] |  |
| 6.30 to 7.00 | 6.30 to 7.00 | CN(C)C(=N)OCc1nc(N)nc(Nc2ccc(Oc3ccccc3)cc2)n1 [Compound F31] | pIC50 [3]: 6.30 to 7.00 |
| > 7.00 |  | C[C@@H]1CN(C(=N)OCc2nc(N)nc(Nc3ccc(Oc4ccccc4)cc3)n2)C[C@H](C)N1C(=O)OC(C)(C)C [Compound F32] |  |
| 6.30 to 7.00 |  | CN1CCN(C(=N)OCc2nc(N)nc(Nc3ccc(Oc4ccccc4)cc3)n2)CC1=O [Compound F33] |  |
| 6.30 to 7.00 | 5.30 to 6.30 | CN(C)C(=N)OCc1nccc(Nc2ccc(Oc3ccccc3)cc2)n1 [Compound F35] |  |
|  |  | CN(C)C(=N)OCc1nc(N)cc(Nc2ccc(Oc3ccccc3)cc2)n1 [Compound F36] | pIC50 ([1]; KP-4, 72 h): 5.30 to 6.30 |
| < 5.30 |  | CN(C)C(=N)OCc1nccc(N2CCCCC2c2ccc(Oc3ccccc3)cc2)n1 (centres unmarked) [Compound F38] |  |
|  | < 5.30 | Nc1nc(COc2nc(=O)[nH]c(=O)[nH]2)nc(Nc2ccc(Oc3ccccc3)cc2)n1 [Compound F53] |  |
|  | 5.30 to 6.30 | CCN(CC(F)(F)F)C(=N)OCc1ncc(C#N)c(Nc2ccc(Oc3ccccc3)cc2)c1F [Compound F54] |  |
|  | 6.30 to 7.00 | N=C(OCc1nc(N)nc(Nc2ccc(N3CCOCC3)cc2)n1)N1CCC[C@@H]1C(F)(F)F [Compound F55, (4-amino-6-((4-morpholinophenyl)amino)-1,3,5-triazin-2-yl) methyl(R)-2-(trifluoromethyl) pyrrolidine-1-carbimidate] |  |

| SMILES | pIC50 [1, 4] | pIC50 [2, 5] | further results |
| --- | --- | --- | --- |
| N=C(OCc1nc(N)c2c(n1)N(c1cnc(N3C4CCC3COC4)nc1)C(=O)C21CCCC1)N1CCC[C@@H]1C(F)(F)F [Compound E93] |  | > 7.00 | pIC50 (786-O cells; [6]): > 7.00 |
| CNc1nc(COC(=N)N2CCC[C@@H]2C(F)(F)F)nc2c1C1(CCCC1)C(=O)N2c1cnc(N2C3CCC2COC3)nc1 [Compound E94] |  | > 7.00 | pIC50 (786-O cells; [6]): > 7.00 |
